Key:
Experiment in all cases: radiometric filter-binding kinase assay
MINK1 (human) = MINK1 (human) (UniProt Q8N4C8)
PIM1 (human) = PIM1 (human) (UniProt P11309)
IKBKE (human) = IKBKE (human) (UniProt Q14164)
EPHB3 (human) = EPHB3 (human) (UniProt P54753)
CAMKK2 (human) = CAMKK2 (human) (UniProt Q96RR4)
BTK (human) = BTK (human) (UniProt Q06187)
MAP3K7 TAB1 (human) = MAP3K7 TAB1 (human) (UniProt Q15750+O43318)
MAPKAPK5 (human) = MAPKAPK5 (human) (UniProt Q8IW41)
MAPK8 (human) = MAPK8 (human) (UniProt P45983)
MELK (human) = MELK (human) (UniProt Q14680)
EPHB2 (human) = EPHB2 (human) (UniProt P29323)
MAPK15 (human) = MAPK15 (human) (UniProt Q8TD08)
MAPKAPK2 (human) = MAPKAPK2 (human) (UniProt P49137)
MAPK14 (human) = MAPK14 (human) (UniProt Q16539)
MAP3K11 (human) = MAP3K11 (human) (UniProt Q16584)
RIPK2 (human) = RIPK2 (human) (UniProt O43353)
AURKB (human) = AURKB (human) (UniProt Q96GD4)
CSNK1D (human) = CSNK1D (human) (UniProt P48730)
PAK7 (human) = PAK7 (human) (UniProt Q9P286)
HIPK2 (human) = HIPK2 (human) (UniProt Q9H2X6)
BRSK1 (human) = BRSK1 (human) (UniProt Q8TDC3)
CSK (human) = CSK (human) (UniProt P41240)
IKBKB (human) = IKBKB (human) (UniProt O14920)
PAK4 (human) = PAK4 (human) (UniProt O96013)
PRKACA (human) = PRKACA (human) (UniProt P17612)
MAP2K2 (human) = MAP2K2 (human) (UniProt P36507)
IGF1R (human) = IGF1R (human) (UniProt P08069)
MAPK9 (human) = MAPK9 (human) (UniProt P45984)
EPHA4 (human) = EPHA4 (human) (UniProt P54764)
MAPK12 (human) = MAPK12 (human) (UniProt P53778)
YES1 (human) = YES1 (human) (UniProt P07947)
DYRK2 (human) = DYRK2 (human) (UniProt Q92630)
DYRK1A (human) = DYRK1A (human) (UniProt Q13627)
MKNK2 (human) = MKNK2 (human) (UniProt Q9HBH9)
CaMK1 (human) = CaMK1 (human) (UniProt Q14012)
Sequence of CaMK1 (human) (Q14012 whole entry, looked up): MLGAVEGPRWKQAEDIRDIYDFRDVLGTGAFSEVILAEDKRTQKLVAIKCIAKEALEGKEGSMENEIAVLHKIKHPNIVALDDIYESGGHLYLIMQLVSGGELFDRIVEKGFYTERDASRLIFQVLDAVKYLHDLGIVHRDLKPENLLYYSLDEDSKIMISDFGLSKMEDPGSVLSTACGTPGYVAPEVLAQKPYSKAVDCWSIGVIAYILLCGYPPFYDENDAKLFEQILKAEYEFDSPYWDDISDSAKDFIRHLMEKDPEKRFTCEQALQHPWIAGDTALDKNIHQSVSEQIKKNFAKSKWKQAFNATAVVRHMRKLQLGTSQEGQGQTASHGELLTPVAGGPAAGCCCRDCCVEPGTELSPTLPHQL

Sequence of PAK4 (human) (O96013 whole entry, looked up): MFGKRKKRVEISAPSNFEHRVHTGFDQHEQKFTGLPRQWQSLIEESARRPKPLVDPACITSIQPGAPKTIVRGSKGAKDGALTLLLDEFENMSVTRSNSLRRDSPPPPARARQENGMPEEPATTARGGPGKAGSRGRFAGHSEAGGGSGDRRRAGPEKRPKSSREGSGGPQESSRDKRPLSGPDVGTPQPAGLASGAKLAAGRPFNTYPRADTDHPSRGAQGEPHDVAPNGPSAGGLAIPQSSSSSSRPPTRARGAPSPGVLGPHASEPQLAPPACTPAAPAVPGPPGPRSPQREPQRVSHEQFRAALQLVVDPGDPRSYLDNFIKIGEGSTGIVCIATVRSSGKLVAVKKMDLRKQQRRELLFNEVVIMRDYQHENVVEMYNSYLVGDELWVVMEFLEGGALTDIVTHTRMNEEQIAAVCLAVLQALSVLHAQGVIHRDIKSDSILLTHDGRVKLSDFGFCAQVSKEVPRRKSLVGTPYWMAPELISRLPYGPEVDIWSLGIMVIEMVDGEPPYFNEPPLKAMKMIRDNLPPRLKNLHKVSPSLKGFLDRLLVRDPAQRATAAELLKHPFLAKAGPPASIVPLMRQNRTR
Sequence of AURKB (human) (Q96GD4 whole entry, looked up): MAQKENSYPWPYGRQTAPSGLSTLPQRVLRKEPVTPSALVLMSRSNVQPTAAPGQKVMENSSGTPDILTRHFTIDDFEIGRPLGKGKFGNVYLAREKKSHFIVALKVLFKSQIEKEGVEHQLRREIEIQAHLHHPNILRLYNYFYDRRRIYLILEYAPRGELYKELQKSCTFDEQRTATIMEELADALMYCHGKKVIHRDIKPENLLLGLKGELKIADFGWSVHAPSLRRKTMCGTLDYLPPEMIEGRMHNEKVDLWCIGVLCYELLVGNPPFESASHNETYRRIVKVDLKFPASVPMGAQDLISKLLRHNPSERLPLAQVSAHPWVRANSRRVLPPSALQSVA
Sequence of PIM1 (human) (P11309 whole entry, looked up): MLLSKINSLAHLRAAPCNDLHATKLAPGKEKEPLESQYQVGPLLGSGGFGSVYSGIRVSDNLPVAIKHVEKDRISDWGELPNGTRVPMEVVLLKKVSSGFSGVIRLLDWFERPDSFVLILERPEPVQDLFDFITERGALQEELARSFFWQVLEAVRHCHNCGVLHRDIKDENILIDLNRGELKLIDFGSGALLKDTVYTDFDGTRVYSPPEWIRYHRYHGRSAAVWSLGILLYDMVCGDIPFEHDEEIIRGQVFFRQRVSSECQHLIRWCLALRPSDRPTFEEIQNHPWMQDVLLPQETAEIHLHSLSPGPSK
Sequence of MKNK2 (human) (Q9HBH9 whole entry, looked up): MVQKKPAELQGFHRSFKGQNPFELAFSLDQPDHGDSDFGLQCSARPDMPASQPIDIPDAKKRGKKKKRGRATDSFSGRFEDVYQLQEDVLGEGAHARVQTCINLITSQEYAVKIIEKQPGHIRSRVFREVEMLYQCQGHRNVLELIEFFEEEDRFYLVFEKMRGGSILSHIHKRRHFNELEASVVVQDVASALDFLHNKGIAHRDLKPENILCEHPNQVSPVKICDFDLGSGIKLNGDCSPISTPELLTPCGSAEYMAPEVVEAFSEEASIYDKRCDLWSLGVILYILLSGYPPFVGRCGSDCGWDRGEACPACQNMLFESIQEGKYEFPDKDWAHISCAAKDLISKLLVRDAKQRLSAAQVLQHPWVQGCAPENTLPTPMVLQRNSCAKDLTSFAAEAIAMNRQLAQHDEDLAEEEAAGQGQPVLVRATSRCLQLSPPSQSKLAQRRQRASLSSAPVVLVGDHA
Sequence of HIPK2 (human) (Q9H2X6 whole entry, looked up): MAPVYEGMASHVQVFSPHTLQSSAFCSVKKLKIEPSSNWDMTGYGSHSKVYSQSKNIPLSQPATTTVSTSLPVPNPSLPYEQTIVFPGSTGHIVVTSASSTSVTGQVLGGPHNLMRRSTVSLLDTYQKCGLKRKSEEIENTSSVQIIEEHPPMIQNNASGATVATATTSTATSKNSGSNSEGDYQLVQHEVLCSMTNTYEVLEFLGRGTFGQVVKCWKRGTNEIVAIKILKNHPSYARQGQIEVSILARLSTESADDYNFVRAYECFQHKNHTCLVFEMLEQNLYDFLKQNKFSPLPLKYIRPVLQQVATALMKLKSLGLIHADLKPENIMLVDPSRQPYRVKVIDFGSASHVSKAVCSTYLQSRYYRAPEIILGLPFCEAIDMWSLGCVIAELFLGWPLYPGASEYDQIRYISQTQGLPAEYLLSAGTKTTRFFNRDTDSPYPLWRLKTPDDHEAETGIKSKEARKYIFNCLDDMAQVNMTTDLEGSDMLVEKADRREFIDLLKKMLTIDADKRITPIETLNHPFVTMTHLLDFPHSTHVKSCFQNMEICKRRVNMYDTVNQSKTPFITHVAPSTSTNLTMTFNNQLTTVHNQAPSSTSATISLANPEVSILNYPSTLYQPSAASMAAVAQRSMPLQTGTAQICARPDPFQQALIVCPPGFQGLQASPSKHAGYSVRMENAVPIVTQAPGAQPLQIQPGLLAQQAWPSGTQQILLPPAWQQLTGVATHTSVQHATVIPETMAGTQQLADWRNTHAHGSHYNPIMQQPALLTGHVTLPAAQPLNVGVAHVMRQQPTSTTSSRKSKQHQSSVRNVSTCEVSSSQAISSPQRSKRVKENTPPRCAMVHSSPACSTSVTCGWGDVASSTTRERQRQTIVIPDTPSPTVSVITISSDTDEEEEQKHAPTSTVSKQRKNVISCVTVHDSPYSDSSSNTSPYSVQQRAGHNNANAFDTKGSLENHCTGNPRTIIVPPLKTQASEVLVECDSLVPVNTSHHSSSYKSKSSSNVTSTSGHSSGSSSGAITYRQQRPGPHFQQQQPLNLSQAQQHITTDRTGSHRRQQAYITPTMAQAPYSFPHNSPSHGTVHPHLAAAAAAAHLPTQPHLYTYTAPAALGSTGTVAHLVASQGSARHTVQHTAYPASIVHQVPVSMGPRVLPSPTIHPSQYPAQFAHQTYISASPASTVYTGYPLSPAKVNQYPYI
Sequence of CSK (human) (P41240 whole entry, looked up): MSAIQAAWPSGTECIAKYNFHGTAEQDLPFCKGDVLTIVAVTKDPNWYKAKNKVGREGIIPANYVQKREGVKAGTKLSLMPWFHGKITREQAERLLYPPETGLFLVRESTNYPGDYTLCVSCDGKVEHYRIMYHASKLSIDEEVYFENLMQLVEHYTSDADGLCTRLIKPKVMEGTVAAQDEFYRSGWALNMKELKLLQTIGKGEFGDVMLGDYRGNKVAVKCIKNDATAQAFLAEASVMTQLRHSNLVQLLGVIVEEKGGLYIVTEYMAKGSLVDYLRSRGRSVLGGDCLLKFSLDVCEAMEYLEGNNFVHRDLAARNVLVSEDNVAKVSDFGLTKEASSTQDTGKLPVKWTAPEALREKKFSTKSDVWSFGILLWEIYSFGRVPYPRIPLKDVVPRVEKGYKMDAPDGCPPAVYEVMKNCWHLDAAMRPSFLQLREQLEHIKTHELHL
Sequence of DYRK2 (human) (Q92630 whole entry, looked up): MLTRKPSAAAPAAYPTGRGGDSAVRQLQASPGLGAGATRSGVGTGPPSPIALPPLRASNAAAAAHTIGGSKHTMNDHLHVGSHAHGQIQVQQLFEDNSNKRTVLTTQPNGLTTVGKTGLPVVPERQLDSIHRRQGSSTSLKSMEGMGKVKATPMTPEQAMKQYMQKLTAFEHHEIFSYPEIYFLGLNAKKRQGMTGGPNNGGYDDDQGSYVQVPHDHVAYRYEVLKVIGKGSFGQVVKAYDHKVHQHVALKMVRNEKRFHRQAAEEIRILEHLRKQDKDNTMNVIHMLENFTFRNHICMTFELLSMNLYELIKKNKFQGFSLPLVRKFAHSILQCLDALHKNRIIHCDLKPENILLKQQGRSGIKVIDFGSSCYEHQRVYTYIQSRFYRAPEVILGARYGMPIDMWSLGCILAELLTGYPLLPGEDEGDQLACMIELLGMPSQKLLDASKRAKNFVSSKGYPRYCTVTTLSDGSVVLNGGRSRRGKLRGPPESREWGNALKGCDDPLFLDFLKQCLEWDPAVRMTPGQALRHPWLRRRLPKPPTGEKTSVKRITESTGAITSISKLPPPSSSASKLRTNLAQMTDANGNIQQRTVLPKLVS
Sequence of MELK (human) (Q14680 whole entry, looked up): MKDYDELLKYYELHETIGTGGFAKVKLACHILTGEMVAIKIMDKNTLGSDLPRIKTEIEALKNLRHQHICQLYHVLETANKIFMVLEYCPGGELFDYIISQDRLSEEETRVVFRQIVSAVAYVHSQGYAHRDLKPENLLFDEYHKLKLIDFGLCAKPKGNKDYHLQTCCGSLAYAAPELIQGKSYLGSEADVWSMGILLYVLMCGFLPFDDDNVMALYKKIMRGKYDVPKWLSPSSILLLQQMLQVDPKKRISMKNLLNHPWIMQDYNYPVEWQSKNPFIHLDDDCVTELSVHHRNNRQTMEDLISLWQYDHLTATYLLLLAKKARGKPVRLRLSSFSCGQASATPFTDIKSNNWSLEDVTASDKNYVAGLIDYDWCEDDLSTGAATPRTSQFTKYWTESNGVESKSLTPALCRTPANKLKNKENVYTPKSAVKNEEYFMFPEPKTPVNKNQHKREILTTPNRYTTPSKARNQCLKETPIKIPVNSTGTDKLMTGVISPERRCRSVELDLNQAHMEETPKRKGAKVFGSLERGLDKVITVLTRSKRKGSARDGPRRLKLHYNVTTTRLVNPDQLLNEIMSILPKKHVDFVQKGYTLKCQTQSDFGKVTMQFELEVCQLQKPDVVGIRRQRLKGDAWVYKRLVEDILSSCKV

**Q.** `NC1(c2ccc(-c3nc4ccn5c(=O)[nH]nc5c4cc3-c3ccccc3)cc2)CCC1` was tested. Which residual activity (MINK1 (human); compound 0.1 µM) did it give?
**A.** 106%

**Q.** What about the residual activity (MINK1 (human); compound 1.0 µM) of the same molecule?
**A.** 86%

**Q.** What about the residual activity (MINK1 (human); compound 10.0 µM) of the same molecule?
**A.** 69%

**Q.** What about the residual activity (PIM1 (human); compound 0.1 µM) of the same molecule?
**A.** 102%

**Q.** What about the residual activity (PIM1 (human); compound 1.0 µM) of the same molecule?
**A.** 93%

**Q.** What about the residual activity (PIM1 (human); compound 10.0 µM) of the same molecule?
**A.** 68%

**Q.** What about the residual activity (IKBKE (human); compound 0.1 µM) of the same molecule?
**A.** 88%

**Q.** What about the residual activity (IKBKE (human); compound 1.0 µM) of the same molecule?
**A.** 90%

**Q.** What about the residual activity (IKBKE (human); compound 10.0 µM) of the same molecule?
**A.** 91%

**Q.** And the residual activity (EPHB3 (human); compound 0.1 µM)?
**A.** 112%

**Q.** And the residual activity (EPHB3 (human); compound 1.0 µM)?
**A.** 99%

**Q.** And the residual activity (EPHB3 (human); compound 10.0 µM)?
**A.** 105%

**Q.** And the residual activity (CAMKK2 (human); compound 0.1 µM)?
**A.** 92%

**Q.** And the residual activity (CAMKK2 (human); compound 1.0 µM)?
**A.** 99%

**Q.** And the residual activity (CAMKK2 (human); compound 10.0 µM)?
**A.** 84%

**Q.** And the residual activity (BTK (human); compound 0.1 µM)?
**A.** 87%

**Q.** What about the residual activity (BTK (human); compound 1.0 µM) of the same molecule?
**A.** 96%

**Q.** What about the residual activity (BTK (human); compound 10.0 µM) of the same molecule?
**A.** 99%

**Q.** And the residual activity (MAP3K7 TAB1 (human); compound 0.1 µM)?
**A.** 81%

**Q.** What about the residual activity (MAP3K7 TAB1 (human); compound 1.0 µM) of the same molecule?
**A.** 107%

**Q.** What about the residual activity (MAP3K7 TAB1 (human); compound 10.0 µM) of the same molecule?
**A.** 49%

**Q.** And the residual activity (MAPKAPK5 (human); compound 0.1 µM)?
**A.** 81%

**Q.** And the residual activity (MAPKAPK5 (human); compound 10.0 µM)?
**A.** 102%

**Q.** What about the residual activity (MAPK8 (human); compound 0.1 µM) of the same molecule?
**A.** 100%

**Q.** What about the residual activity (MAPK8 (human); compound 1.0 µM) of the same molecule?
**A.** 100%

**Q.** What about the residual activity (MAPK8 (human); compound 10.0 µM) of the same molecule?
**A.** 87%

**Q.** And the residual activity (MELK (human); compound 0.1 µM)?
**A.** 80%

**Q.** What about the residual activity (MELK (human); compound 1.0 µM) of the same molecule?
**A.** 75%

**Q.** And the residual activity (MELK (human); compound 10.0 µM)?
**A.** 80%

**Q.** What about the residual activity (EPHB2 (human); compound 0.1 µM) of the same molecule?
**A.** 107%

**Q.** And the residual activity (EPHB2 (human); compound 1.0 µM)?
**A.** 93%

**Q.** What about the residual activity (EPHB2 (human); compound 10.0 µM) of the same molecule?
**A.** 74%

**Q.** And the residual activity (MAPK15 (human); compound 0.1 µM)?
**A.** 106%

**Q.** And the residual activity (MAPK15 (human); compound 1.0 µM)?
**A.** 89%

**Q.** And the residual activity (MAPK15 (human); compound 10.0 µM)?
**A.** 93%

**Q.** What about the residual activity (MAPKAPK2 (human); compound 0.1 µM) of the same molecule?
**A.** 99%

**Q.** And the residual activity (MAPKAPK2 (human); compound 1.0 µM)?
**A.** 110%

**Q.** What about the residual activity (MAPKAPK2 (human); compound 10.0 µM) of the same molecule?
**A.** 88%

**Q.** What about the residual activity (MAPK14 (human); compound 0.1 µM) of the same molecule?
**A.** 110%

**Q.** And the residual activity (MAPK14 (human); compound 1.0 µM)?
**A.** 97%

**Q.** And the residual activity (MAPK14 (human); compound 10.0 µM)?
**A.** 101%

**Q.** And the residual activity (MAP3K11 (human); compound 0.1 µM)?
**A.** 103%

**Q.** What about the residual activity (MAP3K11 (human); compound 1.0 µM) of the same molecule?
**A.** 97%

**Q.** What about the residual activity (MAP3K11 (human); compound 10.0 µM) of the same molecule?
**A.** 81%

**Q.** And the residual activity (RIPK2 (human); compound 0.1 µM)?
**A.** 101%

**Q.** And the residual activity (RIPK2 (human); compound 1.0 µM)?
**A.** 84%

**Q.** What about the residual activity (RIPK2 (human); compound 10.0 µM) of the same molecule?
**A.** 38%

**Q.** What about the residual activity (AURKB (human); compound 0.1 µM) of the same molecule?
**A.** 106%

**Q.** What about the residual activity (AURKB (human); compound 1.0 µM) of the same molecule?
**A.** 88%

**Q.** What about the residual activity (AURKB (human); compound 10.0 µM) of the same molecule?
**A.** 78%

**Q.** What about the residual activity (CSNK1D (human); compound 0.1 µM) of the same molecule?
**A.** 119%

**Q.** And the residual activity (CSNK1D (human); compound 1.0 µM)?
**A.** 100%

**Q.** What about the residual activity (CSNK1D (human); compound 10.0 µM) of the same molecule?
**A.** 91%

**Q.** What about the residual activity (PAK7 (human); compound 0.1 µM) of the same molecule?
**A.** 101%

**Q.** And the residual activity (PAK7 (human); compound 1.0 µM)?
**A.** 96%

**Q.** And the residual activity (PAK7 (human); compound 10.0 µM)?
**A.** 75%

**Q.** What about the residual activity (HIPK2 (human); compound 0.1 µM) of the same molecule?
**A.** 102%

**Q.** What about the residual activity (HIPK2 (human); compound 1.0 µM) of the same molecule?
**A.** 97%

**Q.** And the residual activity (HIPK2 (human); compound 10.0 µM)?
**A.** 80%

**Q.** What about the residual activity (BRSK1 (human); compound 0.1 µM) of the same molecule?
**A.** 115%

**Q.** And the residual activity (BRSK1 (human); compound 1.0 µM)?
**A.** 112%

**Q.** What about the residual activity (BRSK1 (human); compound 10.0 µM) of the same molecule?
**A.** 87%

**Q.** And the residual activity (CSK (human); compound 0.1 µM)?
**A.** 92%

**Q.** What about the residual activity (CSK (human); compound 1.0 µM) of the same molecule?
**A.** 91%

**Q.** And the residual activity (CSK (human); compound 10.0 µM)?
**A.** 85%

**Q.** What about the residual activity (IKBKB (human); compound 0.1 µM) of the same molecule?
**A.** 112%

**Q.** And the residual activity (IKBKB (human); compound 1.0 µM)?
**A.** 98%

**Q.** And the residual activity (IKBKB (human); compound 10.0 µM)?
**A.** 89%

**Q.** What about the residual activity (PAK4 (human); compound 0.1 µM) of the same molecule?
**A.** 75%

**Q.** And the residual activity (PAK4 (human); compound 1.0 µM)?
**A.** 78%

**Q.** And the residual activity (PAK4 (human); compound 10.0 µM)?
**A.** 66%

**Q.** What about the residual activity (PRKACA (human); compound 0.1 µM) of the same molecule?
**A.** 104%

**Q.** And the residual activity (PRKACA (human); compound 1.0 µM)?
**A.** 91%

**Q.** What about the residual activity (PRKACA (human); compound 10.0 µM) of the same molecule?
**A.** 90%

**Q.** And the residual activity (MAP2K2 (human); compound 0.1 µM)?
**A.** 103%

**Q.** What about the residual activity (MAP2K2 (human); compound 1.0 µM) of the same molecule?
**A.** 99%

**Q.** What about the residual activity (MAP2K2 (human); compound 10.0 µM) of the same molecule?
**A.** 90%

**Q.** And the residual activity (IGF1R (human); compound 0.1 µM)?
**A.** 116%

**Q.** What about the residual activity (IGF1R (human); compound 1.0 µM) of the same molecule?
**A.** 85%

**Q.** And the residual activity (IGF1R (human); compound 10.0 µM)?
**A.** 55%

**Q.** And the residual activity (MAPK9 (human); compound 0.1 µM)?
**A.** 83%

**Q.** What about the residual activity (MAPK9 (human); compound 1.0 µM) of the same molecule?
**A.** 94%

**Q.** What about the residual activity (MAPK9 (human); compound 10.0 µM) of the same molecule?
**A.** 97%

**Q.** What about the residual activity (EPHA4 (human); compound 0.1 µM) of the same molecule?
**A.** 107%

**Q.** What about the residual activity (EPHA4 (human); compound 1.0 µM) of the same molecule?
**A.** 116%

**Q.** What about the residual activity (EPHA4 (human); compound 10.0 µM) of the same molecule?
**A.** 97%

**Q.** What about the residual activity (MAPK12 (human); compound 0.1 µM) of the same molecule?
**A.** 94%

**Q.** And the residual activity (MAPK12 (human); compound 1.0 µM)?
**A.** 94%

**Q.** What about the residual activity (MAPK12 (human); compound 10.0 µM) of the same molecule?
**A.** 101%

**Q.** And the residual activity (YES1 (human); compound 0.1 µM)?
**A.** 102%

**Q.** What about the residual activity (YES1 (human); compound 1.0 µM) of the same molecule?
**A.** 99%

**Q.** What about the residual activity (YES1 (human); compound 10.0 µM) of the same molecule?
**A.** 68%

**Q.** What about the residual activity (DYRK2 (human); compound 0.1 µM) of the same molecule?
**A.** 96%

**Q.** What about the residual activity (DYRK2 (human); compound 1.0 µM) of the same molecule?
**A.** 96%

**Q.** What about the residual activity (DYRK2 (human); compound 10.0 µM) of the same molecule?
**A.** 87%

**Q.** And the residual activity (DYRK1A (human); compound 0.1 µM)?
**A.** 95%

**Q.** And the residual activity (DYRK1A (human); compound 1.0 µM)?
**A.** 88%

**Q.** What about the residual activity (DYRK1A (human); compound 10.0 µM) of the same molecule?
**A.** 57%

**Q.** And the residual activity (MKNK2 (human); compound 0.1 µM)?
**A.** 90%

**Q.** And the residual activity (MKNK2 (human); compound 1.0 µM)?
**A.** 100%

**Q.** And the residual activity (MKNK2 (human); compound 10.0 µM)?
**A.** 92%

**Q.** And the residual activity (CaMK1 (human); compound 0.1 µM)?
**A.** 108%

**Q.** And the residual activity (CaMK1 (human); compound 1.0 µM)?
**A.** 87%

**Q.** And the residual activity (CaMK1 (human); compound 10.0 µM)?
**A.** 35%
